Source: the supplement of paper PMC12076712

What was measured:
Experiment in all cases: pIC50, kinobeads binding competition
Details in all cases: cell material: Jurkat lysate
UniProt Q13188 = biological target: T1, UniProt Q13188
T1 sequence (whole entry): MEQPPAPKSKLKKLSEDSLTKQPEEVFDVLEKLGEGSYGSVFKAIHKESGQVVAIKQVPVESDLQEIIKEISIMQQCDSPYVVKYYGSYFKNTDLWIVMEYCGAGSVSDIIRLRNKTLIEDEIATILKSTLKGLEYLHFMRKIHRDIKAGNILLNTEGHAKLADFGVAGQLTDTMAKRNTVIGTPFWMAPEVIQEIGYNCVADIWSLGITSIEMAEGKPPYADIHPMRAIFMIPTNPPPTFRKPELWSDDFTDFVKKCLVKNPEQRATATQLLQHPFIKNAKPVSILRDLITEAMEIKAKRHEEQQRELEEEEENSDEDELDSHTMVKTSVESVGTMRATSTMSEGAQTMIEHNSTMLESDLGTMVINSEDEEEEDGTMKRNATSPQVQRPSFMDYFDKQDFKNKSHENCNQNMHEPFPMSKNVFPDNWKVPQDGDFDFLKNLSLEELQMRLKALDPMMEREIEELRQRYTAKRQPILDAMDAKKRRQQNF

NEK1 = biological target: T2, NEK1 (UniProt Q96PY6)
T2 sequence (whole entry): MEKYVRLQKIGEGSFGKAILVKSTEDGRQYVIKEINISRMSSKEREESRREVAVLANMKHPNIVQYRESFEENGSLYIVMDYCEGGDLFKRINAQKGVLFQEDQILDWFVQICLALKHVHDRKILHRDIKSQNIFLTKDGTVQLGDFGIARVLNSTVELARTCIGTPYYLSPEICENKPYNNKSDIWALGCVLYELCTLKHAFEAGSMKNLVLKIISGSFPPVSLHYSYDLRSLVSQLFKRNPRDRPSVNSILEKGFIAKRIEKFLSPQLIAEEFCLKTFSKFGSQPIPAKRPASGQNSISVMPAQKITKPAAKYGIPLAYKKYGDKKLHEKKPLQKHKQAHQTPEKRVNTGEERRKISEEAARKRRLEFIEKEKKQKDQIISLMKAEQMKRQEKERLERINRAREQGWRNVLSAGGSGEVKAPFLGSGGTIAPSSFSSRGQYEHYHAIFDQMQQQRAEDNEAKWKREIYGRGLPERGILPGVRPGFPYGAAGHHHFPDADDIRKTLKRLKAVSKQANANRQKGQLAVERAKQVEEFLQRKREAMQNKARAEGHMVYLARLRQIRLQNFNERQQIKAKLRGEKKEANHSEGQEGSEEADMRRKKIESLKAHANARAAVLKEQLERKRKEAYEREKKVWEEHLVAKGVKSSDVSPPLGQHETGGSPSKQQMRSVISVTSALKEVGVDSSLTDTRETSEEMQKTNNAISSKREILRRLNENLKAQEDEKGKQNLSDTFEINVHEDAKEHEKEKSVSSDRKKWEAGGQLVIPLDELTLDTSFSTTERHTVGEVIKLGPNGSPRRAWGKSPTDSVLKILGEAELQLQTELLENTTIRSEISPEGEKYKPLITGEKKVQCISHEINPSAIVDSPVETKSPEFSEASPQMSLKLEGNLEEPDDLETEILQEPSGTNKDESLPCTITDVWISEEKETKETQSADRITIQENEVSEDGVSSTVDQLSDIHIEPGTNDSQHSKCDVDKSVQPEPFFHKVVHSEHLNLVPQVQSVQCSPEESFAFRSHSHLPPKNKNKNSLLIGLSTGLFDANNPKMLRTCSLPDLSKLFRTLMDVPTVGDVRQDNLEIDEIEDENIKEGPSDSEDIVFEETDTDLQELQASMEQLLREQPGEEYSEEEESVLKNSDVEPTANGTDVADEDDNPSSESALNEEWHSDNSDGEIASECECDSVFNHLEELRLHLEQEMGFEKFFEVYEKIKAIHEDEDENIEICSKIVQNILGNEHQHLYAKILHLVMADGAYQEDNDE

UniProt P46734 = biological target: T3, UniProt P46734
T3 sequence (whole entry): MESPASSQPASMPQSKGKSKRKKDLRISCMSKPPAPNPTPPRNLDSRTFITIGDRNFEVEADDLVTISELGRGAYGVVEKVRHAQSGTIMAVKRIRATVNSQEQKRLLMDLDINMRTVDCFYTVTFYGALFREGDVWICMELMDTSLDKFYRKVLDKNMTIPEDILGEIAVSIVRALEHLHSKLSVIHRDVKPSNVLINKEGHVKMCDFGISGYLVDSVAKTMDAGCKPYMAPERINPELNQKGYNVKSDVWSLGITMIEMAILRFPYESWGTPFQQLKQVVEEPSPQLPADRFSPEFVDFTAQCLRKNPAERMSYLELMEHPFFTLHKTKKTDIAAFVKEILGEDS

- pIC50 (UniProt Q13188): < 4.52
- pIC50 (NEK1): < 4.52
- pIC50 (UniProt P46734): < 4.52
Structure (SMILES): CCc1cnn2c(NCc3ccc[n+]([O-])c3)cc(N3CCCC[C@H]3CCO)nc12 [dinaciclib]
